One data set deals with CaaD. The experiment in a line: Inhibition of CaaD by the internal standard tartrate. Type of data set: biochemical, Pseudomonas pavonaceae 170. Conditions: at concentrations of 4 mM.
The target in data set [1] is T1, αY60W-CaaD (Pseudomonas pavonaceae, UniProt Q9EV84+Q9EV85, Q9EV85:Y61W).
T1 sequence (Q9EV85 2-76 Y61W): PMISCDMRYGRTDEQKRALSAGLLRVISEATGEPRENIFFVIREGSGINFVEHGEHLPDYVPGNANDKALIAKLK
T1 sequence (Q9EV84 2-71): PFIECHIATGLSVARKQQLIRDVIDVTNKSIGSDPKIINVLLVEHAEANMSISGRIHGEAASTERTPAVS

The target of data set [2] is T1, αY60W-CaaD. To be noted: competitive inhibition; 9 at 35–200 μM, bromide 0–50,000 μM.
Data set [3] has as its target T1, αY60W-CaaD. The experiment in a line: Global fitting of kinetic data to the six-step model. It is filed as biochemical, Pseudomonas pavonaceae 170.
The test system of the next data set is αL57W-CaaD. Kind of data set: Steady state activity assay. It is filed as biochemical, Pseudomonas pavonaceae 170. Conditions: αL57W mutant.
Data set [4] concerns the target T1, αY60W-CaaD. Kind of data set: Stopped-flow fluorescence binding of malonate semialdehyde. Also on record: species or system Pseudomonas pavonaceae 170.
In the next data set the target is βI37W-CaaD (Pseudomonas pavonaceae, UniProt Q9EV84+Q9EV85, Q9EV84:I38W). The experiment in a line: biochemical.
Data set [5] deals with T1, αY60W-CaaD. To be noted: αY60W-CaaD vs wild-type.
The target of data set [6] is T1, αY60W-CaaD. The experiment in a line: Stopped-flow fluorescence of the reaction with 9, conventional analysis. It is filed as biochemical, Pseudomonas pavonaceae 170.
Data set [7] has as its target T1, αY60W-CaaD. Kind of data set: Rapid-quench burst experiment, bromide quantified by IC.
The target in another data set is T2, Wild-type CaaD (Pseudomonas pavonaceae, UniProt Q9EV84+Q9EV85).
T2 sequence (Q9EV85 2-76): T1 sequence (Q9EV85 2-76 Y61W)
T2 sequence (Q9EV84 2-71): T1 sequence (Q9EV84 2-71)
The description is as above. To be noted: wild-type 400 μM; saturating 9; pH 8.1, 22 °C.

The next data set concerns αM7W-CaaD. It is filed as biochemical. To be noted: αM7W-CaaD vs wild-type.
The subject of a further data set is O=C(O)/C=C/Br. Kind of data set: purified protein, by the assay type.
Substrate in data set [8]: O=C(O)/C=C/Br
Kind of data set: purified protein, by the assay type. To be noted: other: wild-type CaaD, 100 mM Na2HPO4 buffer pH 8.1, 22 °C.

[9] abbreviates: Table 2, αY60W 400 μM, saturating 9, pH 8.1, 22 °C.
Where [10] appears, read: Table 3, enzyme concentration 200 μM, 9 at 10,000 μM.
The mark [11] stands for this setting: Table 3, enzyme concentration 400 μM, 9 at 10,000 μM.
Where [12] appears, read: Table 3, enzyme concentration 600 μM, 9 at 10,000 μM.
Setting [13] is: other: αM7W, 100 mM Na2HPO4 buffer pH 8.1, 22 °C, pH 8.1, 22.0 °C.
Where [14] appears, read: other: using the numbers in Table 4 and Scheme 3.

We go through eight molecules from publication PMC3518313 (Biochemistry, 2012).

In general, Kd refers to the constant that tells how readily two partners part at equilibrium. What is called Ki is a measure of affinity in units of concentration, obtained from inhibition or displacement. Low readings indicate a stronger hold on the target, high ones a looser hold on the target. Broadly, the koff is a measure of how fast the partners let go of each other. The kcat is the maximal rate divided by the concentration of active sites. As a reminder, the kcat/Km is the second-order rate constant that governs catalysis at low substrate concentration.

Like-named read-outs stand apart in the source and are kept apart here. Bounds are passed on as bounds.

Regarding `O=C(O)C(O)C(O)C(=O)O` (centres unmarked) [Tartrate], the “inhibition of CaaD” value in the data set on CaaD is listed as “does not inhibit”.
Take `Br` [bromide]: the increase in fluorescence on αY60W-CaaD [1] (bromide bound to αY60W-CaaD) is recorded as ~ 14%. Further, the “fluorescence factor for enzyme-bound bromide” value at αY60W-CaaD [1] (fit by simulation) is recorded as 1.17. Also, the dissociation constant Kd is 12 mM on αY60W-CaaD [1] (read-out: Kd, Br-, fit by simulation, koff fixed at 200 s^−1); 7.4 mM on αY60W-CaaD [1] (read-out: predicted Kd, saturation of the fluorescence signal, hyperbolic fit); 12.5 mM on αY60W-CaaD [3] (read-out: Kd,Br, best fit, global fit, k5 held fixed at 200 s^−1). On αY60W-CaaD [2], the inhibitory constant (Ki) was about 10 mM.
Take `O=C(O)/C=C/Cl` [compound 2, trans-3-chloroacrylic acid]: the activity result in the data set on αL57W-CaaD is reported as “no activity”.
In the case of `O=CCC(=O)O` [compound 4, malonate semialdehyde], the Kd at αY60W-CaaD [4] (Kd (koff / kon), estimate from conventional kon and koff) was 1.1 mM; on αY60W-CaaD [4] (Kd, 4, calculated from simulation kon and koff) it was about 0.6 mM; at αY60W-CaaD [4] (Kd, end-point fluorescence titration fit to Equation S2), 0.38 mM. Further, at αY60W-CaaD [4] (fit by simulation), the “fluorescence factor for enzyme bound to 4” value is recorded as 1.14. Moreover, the koff on αY60W-CaaD [4] (read-out: koff, 4, conventional analysis, kobs vs [4], 250 ms) is 28 s⁻¹; at αY60W-CaaD [4] (read-out: koff, 4, fit by simulation (250 ms)), 17 s⁻¹. Also, the “increase in the fluorescence signal” value on αY60W-CaaD [4] (upon mixing αY60W-CaaD with 4) amounted to 16%.
Turning to `O=C(O)/C=C/Br` [compound 9, trans-3-bromoacrylate], the Kd on βI37W-CaaD is over 40 mM. Moreover, the “decrease in Km compared with wild-type” value at αY60W-CaaD [5] was ~ 1.5 fold. The “net forward rate kfor” value at αY60W-CaaD [6] (fit to Eq. 3) is ~ 8 s^−1. The “apparent reverse rate krev” value on αY60W-CaaD [6] (fit to Eq. 3, equal to kcat) was ~ 3 s^−1. For the same molecule, the “maximum rate of the fluorescence change” value at αY60W-CaaD [6] (single exponential fit, first 1 s) is ~ 10 s^−1. The “Burst Amplitude (A)” value is on record as 0.9 at αY60W-CaaD [7] (setting [9]); 0.85 on αY60W-CaaD [7] (setting [10]); 0.9 at αY60W-CaaD [7] (setting [11]); 0.94 on αY60W-CaaD [7] (setting [12]); 0.8 on Wild-type CaaD. For the same molecule, the kburst at αY60W-CaaD [7] (setting [9]) is 86 ± 10 s⁻¹; at αY60W-CaaD [7] (setting [10]), 43 ± 3 ^c s^−1; at αY60W-CaaD [7] (setting [11]), 86 ± 20 s⁻¹; at αY60W-CaaD [7] (setting [12]), 107 ± 15 s⁻¹; at Wild-type CaaD, 90 ± 20 ^c s^−1. Besides, the “kcat (calculated from the burst equation)” value at αY60W-CaaD [7] (setting [9]) is 2.5 ± 0.5 s⁻¹; at αY60W-CaaD [7] (setting [10]), 1.8 ± 0.5 s⁻¹; at αY60W-CaaD [7] (setting [11]) it was 2.5 ± 0.5 s⁻¹; at αY60W-CaaD [7] (setting [12]), 2.8 ± 0.5 s⁻¹; on Wild-type CaaD it was 3 ± 0.5 s⁻¹. The molecule also registered a steady state turnover at αY60W-CaaD [7] (summary of Tables 2 and 3 (CaaD and αY60W-CaaD), 9 at 10 mM) of 3 s⁻¹. In the data set with αL57W-CaaD, the activity entry is reported as “no activity”. The “f/f0 (fluorescence scaling factor), best fit” value at αY60W-CaaD [3] (global fit to Scheme 4, fractional change in enzyme fluorescence) was determined as 0.710. For the same molecule, the “k3, best fit” value at αY60W-CaaD [3] (global fit, formation of E*PQ, k-3 fixed at 1 s^−1) came to 9.6 s⁻¹. The “decrease in kcat compared with wild-type” value in the data set on αM7W-CaaD is listed as ~ 4 fold. Moreover, the “decrease in kcat/Km compared with wild-type” value with αM7W-CaaD was 4 fold.
On to “αM7W-CaaD (Pseudomonas pavonaceae; Q9EV85:M8W)”, for which, in the data set on O=C(O)/C=C/Br (setting [13]), the Km was 120 ± 10 OM, the kcat is 0.6 s⁻¹ and the catalytic efficiency (kcat/Km) came out at 3000 M⁻¹ s⁻¹.
For the molecule “αY60W-CaaD (Pseudomonas pavonaceae; Q9EV85:Y61W)”, in the data set on O=C(O)/C=C/Br (setting [14]), the Km came out at 95 µM and the turnover number (kcat) came to 2.2 s⁻¹. The Km in the data set with O=C(O)/C=C/Br (other: αY60W, 100 mM Na2HPO4 buffer pH 8.1, 22 °C, pH 8.1, 22.0 °C) is listed as 70 ± 3.5 OM.

B1: Wild-type CaaD (Pseudomonas pavonaceae) (protein)
chain 1: T1 sequence (Q9EV85 2-76 Y61W)
chain 2: T1 sequence (Q9EV84 2-71)
For the molecule B1, in data set [8], the Km came out at 120 ± 10 OM, the kcat is 2.5 s⁻¹ and the kcat/Km was determined as 13000 M⁻¹ s⁻¹.
